Reference: patent publication US7989466B2, “Methods to inhibit or augment an inflammatory response” (Cambridge Enterprise Limited, priority 1999, dated 2011)
Like-named read-outs stand apart in the source and are kept apart here. Marks after values point to notes of the source that are not given here. Positions of bridges follow the written chain, without caps; N, C: chain ends. No end group written: not given here. *: point of attachment. Biotin = O=C1N[C@H]2[C@H](CS[C@H]2CCCCC(=O)*)N1

Assays:
[1] = test system: MCP-1 induced THP-1 migration; experiment: THP-1 trans-well migration assay, MCP-1 as chemoattractant; assay type: cell-based, human
Protocol: (§1) To determine whether an agent inhibits a chemokine-induced activity, such as macrophage recruitment, varying amounts of the agent are mixed with cells in the presence of a known chemoattractant. For example, a range of known concentrations of an agent, e.g., a chemokine peptide, is incubated with a defined number (e.g., 10^4-10^6) of human THP-1 monocyte cells in individual wells of the top compartment of a trans-well plate. Chemokine (such as MCP-1, MIP1α, IL8 or SDF-1α), at a concentration known to cause significant migration of THP-1 cells in the trans-well migration assay, is placed in the lower compartment (FIG. 1). Cells are then incubated at 37° C. for a period sufficient to allow migration, e.g., 4 hours. After incubation, the cells are gently removed from the top of the filter with a pipette, 20 μl of 20 mM EDTA in simple PBS is added into each top well, and incubated for 20 minutes at 4° C. The filter is carefully flushed with media using a gentle flow, and removed. A standard curve consisting of a two-fold dilution series of THP-1 cells (in 29 μl) is prepared to accurately quantify the number of cells that have migrated. Migrated cells are stained with 3 μl of MTT stock dye solution which is added directly into each well (5 mg/ml in RPMI-1640 without phenol red, Sigma Chemical Co.) and incubated at 37° C. for 4 hours. The media is carefully aspirated from each well, and the converted dye is solubilized by 20 μl of DMSO. Absorbance of converted dye is measured at a wavelength of 595 nm using an ELISA plate reader. The number of migrated cells in each well is then determined by interpolation of the standard curve (see also Imai et al., J. Biol. Chem., 272, 15036 (1997)).
(§2) For this assay, THP-1 cells were maintained at a density of 4×10^5 cells per ml in RPMI-1640 supplemented with 10% fetal calf serum+20 μM 2-mercaptoethanol. Chemotaxis was induced in a 96-well disposable chemotaxis chamber fitted with a […] polycarbonate filter (PVP free, ChemoTX, Neuroprobe Inc., Cabin John). Twenty-nine μl of chemoattractant (recombinant human chemokine; 50 ng/ml, i.e., 5.9 nM) or control (100 ng/ml TGFβ) was added to the lower compartment of each well. The framed filter was aligned with the holes in the corner of the filter frame and placed over the wells. Five×10^4 THP-1 cells in 25 μl of RPMI-1640 were added to the upper compartment. Peptides were dissolved in Milli Q water and then serially diluted in culture medium. In most cases, the serially diluted peptides were added to the upper compartment of the chemotaxis chamber. The chamber was incubated at 37° C. in a humidified atmosphere of 5% CO2 for 4 hours.
(§3) After incubation, the cells were gently removed from the top of the filter with a pipette, 20 μl of 20 mM EDTA in PBS was added into each top well, and the mixture was incubated for 20 minutes at 4° C. The filter was then carefully flushed with media using a gentle flow, and removed. A standard curve was prepared to accurately quantify the number of THP-1 cells that had migrated. The curve was based on a two-fold dilution series of THP-1 cells (top standard 100,000 cells in 29 μl). Cells which had migrated, and in separate wells, the cells in the standards, were stained with 3 μl of MTT stock solution which was added directly into each well (5 mg/ml in RPMI 1640 without phenol red, Sigma Chemical Co.) and incubated at 37° C. for 4 hours. The media was carefully aspirated from each well, and the converted dye was solubilized by 20 μl of DMSO. Absorbance of converted dye was measured at a wavelength of 595 nm using an ELISA plate reader. The number of cells that had migrated in each well was determined by interpolation of the standard curve.

[2] = test system: chemokine-induced THP-1 migration; experiment: THP-1 trans-well migration assay, panel of chemokines (MCP-1, MIP1α, IL-8, SDF1α); assay type: cell-based, human; details: for effect on THP-1 migration induced by the chemokine panel, in words / Chemokine antagonist: MCP-1, MIP1α; for effect on THP-1 migration induced by the chemokine panel, in words: IL-8, SDF1α; for CC SPECIFICITY: average inhibitory ED50 versus SDF1 and IL8 divided by average inhibitory ED50 versus MCP-1 and MIP1α; for Chemokine antagonist: active against at least one of IL-8, SDF-1α
[3] = test system: MIP1α induced THP-1 migration; experiment: THP-1 trans-well migration assay, MIP1α as chemoattractant; assay type: cell-based, human; details: n.s. = no statistically significant inhibition (p > 0.05); read-out: ED50 versus MIP1α, inhibition of THP-1 migration
Protocol: as §1, §2, §3

[4] = test system: IL8 induced THP-1 migration; experiment: THP-1 trans-well migration assay, IL-8 as chemoattractant; assay type: cell-based, human; details: for EC50: n.s. = no statistically significant inhibition (p > 0.05), read-out: ED50 versus IL8, inhibition of THP-1 migration
Protocol: as §1, §2, §3

[5] = test system: TGFβ1 induced THP-1 migration; experiment: THP-1 trans-well migration assay, TGFβ1 as non-chemokine control; assay type: cell-based, human; details: n.s. = no statistically significant inhibition (p > 0.05)
Protocol: Any method suitable for counting cells can be used, for example, counting with a hemocytometer, incubation of the cells with MTT (see above), or FACS analysis. A negative control assay is also performed, using TGF-β or another non-chemokine chemoattractant (e.g., IL1β or TNFα). To assess whether the agent is cytotoxic, the same concentrations of agent are incubated with THP-1 cells. Agents which 1) are not cytotoxic at levels which inhibit migration, 2) are ineffective at inhibiting the negative control-induced migration, and 3) reduce or inhibit chemokine-induced THP-1 migration, are agents which fall within the scope of the invention.
Chemotaxis was induced in a 96-well disposable chemotaxis chamber fitted with a […] polycarbonate filter (PVP free, ChemoTX, Neuroprobe Inc., Cabin John). […] The framed filter was aligned with the holes in the corner of the filter frame and placed over the wells. […] Peptides were dissolved in Milli Q water and then serially diluted in culture medium. In most cases, the serially diluted peptides were added to the upper compartment of the chemotaxis chamber. The chamber was incubated at 37° C. in a humidified atmosphere of 5% CO2 for 4 hours.
After incubation, the cells were gently removed from the top of the filter with a pipette, 20 μl of 20 mM EDTA in PBS was added into each top well, and the mixture was incubated for 20 minutes at 4° C. The filter was then carefully flushed with media using a gentle flow, and removed. […] The curve was based on a two-fold dilution series of THP-1 cells (top standard 100,000 cells in 29 μl). […] The media was carefully aspirated from each well, and the converted dye was solubilized by 20 μl of DMSO.

[6] = test system: SDF-1α induced THP-1 migration; experiment: THP-1 trans-well migration assay, SDF-1α as chemoattractant; assay type: cell-based, human; details: n.s. = no statistically significant inhibition (p > 0.05); read-out: ED50 versus SDF-1α, inhibition of THP-1 migration
Protocol: as §1, §2, §3

[7] = test system: chemokine receptors on THP-1 cells; experiment: Binding to chemokine receptors on THP-1 cells; design: species or system human
Protocol: In general, specific binding is calculated as the amount of labeled agent bound in the absence of cold competitor minus the amount of labeled agent bound in the presence of cold competitor. The amount of specific binding in the presence of varied amounts of cold competitor can be used to determine the association constant for the agent, as well as the number of binding sites on the cell for the agent, using, for example, Scatchard Analysis. The agent may be labeled by radiolabeling (e.g., iodination) or with a suitable biochemical tag (e.g., biotin) or by addition of a photoactivatable crosslinking group. Agents with an association constant lower than 100 μM (i.e., which bind more strongly than an agent with an association constant of 100 μM) and which have at least about 2,500, preferably at least about 10,000, and more preferably greater than 25,000, binding sites per cell for at least one cell type which expresses a chemokine receptor, fall under the scope of this invention. THP-1 cells have at least about 5,000 MCP-1 receptors/cell.
For example, monocytes are suspended in RPMI 1640 medium without bicarbonate containing 0.2% bovine serum albumin and 0.1% azide. Radiolabeled chemokine peptide is incubated with 1-2×10^6 cells, e.g., THP-1 cells, in the presence or absence of increasing concentrations of unlabeled chemokine (MCP-1, MCP-3, MCP-4, RANTES or MIP-1α) for 15 minutes at 37° C. in a 96-well plate in a final volume of 0.2 ml (e.g., PBS+0.5% FCS). After the incubation, 0.5 ml of ice-cold wash buffer (20 mM Tris, 0.5 M NaCl, pH 7.4) is added, and cells are collected onto a polyethyleneimine-treated Whatman GF/C filter using a Brandall cell harvester. Filters are washed with 4 ml of cold wash buffer, and the radioactivity bound to the filters is counted in a γ-counter.
For Scatchard analysis, the absorbance readings at 450 nm were calibrated, by reference to a standard curve in which known amounts of labeled peptide were coupled to derivatized sepharose beads (activated thiol-sepharose 4B; Sigma T8512) via the cysteine residue in each peptide. Briefly, known amounts (1 fmol to 1 pmol) of biotin-labeled peptide were incubated with 1 mg of activated thiol-sepharose beads in 100 μl of PBS at 37° C. for 1 hour. Free activated thiols were then blocked by addition of cysteine to a final concentration of 10 mM. The peptide-conjugated beads were then washed 5 times in PBS and treated exactly as for the cells described above. The absorbance at 450 nm obtained when a known amount of peptide was coupled to the beads was used to construct a standard curve which was used to convert the absorbance readings obtained with cells into number of molecules of labeled peptide which had bound.

[8] = Homo sapiens, THP-1, agent with the cells in the upper compartment, n.s. = no statistically significant inhibition (p > 0.05), read-out: ED50 versus MCP-1, inhibition of THP-1 migration
[9] = average inhibitory ED50 for inhibition of THP-1 migration induced by each of the chemokines, read-out: AVERAGE ED50
[10] = agent with the cells in the upper compartment, n.s. = no statistically significant inhibition (p > 0.05), read-out: ED50 versus MCP-1, inhibition of THP-1 migration

CCC1(c2ccccc2)CCC(=O)NC1=O (centres unmarked) [Glutethimide, reference compound]
EC50 ([1]; Homo sapiens, THP-1, read-out: ED50 versus MCP-1, inhibition of THP-1 migration): 50 µM

Cc1cc(C(C)(C)C)c(O)c(C)c1CC1=NCCN1 [Oxymetazoline, reference compound]
EC50 [1, 8]: 75 µM

O=C1NC(=O)C(c2ccccc2)(c2ccccc2)N1 [Phenytoin, reference compound]
EC50 [1, 8]: 10 µM

COC(=O)[C@@H]1[C@H]2C[C@H]3c4[nH]c5ccccc5c4CCN3C[C@@H]2CC[C@@H]1O [Yohimbine, reference compound]
EC50 ([1]; Homo sapiens, THP-1, read-out: ED50 versus MCP-1 induced chemotaxis of THP-1): 0.03 µM

COC(=O)[C@H]1[C@H]2C[C@H]3c4[nH]c5ccccc5c4CCN3C[C@H]2CC[C@@H]1O [α-Yohimbine, reference compound]
EC50 ([1]; read-out: ED50 versus MCP-1 induced chemotaxis of THP-1): 0.5 µM

-CQVWKQKPDAC-- (disulfide 1-11; not fully specified (some residues, C-terminus); printed as -CQVWKQKPDAC--; also: CRD: cyclic reverse-D derivative, D-residues shown in italics, not given here) [CRD-Cys13pep3[3-12]]
EC50 [2, 9]: 0.8 µM

APG [reference compound]
effect on THP-1 migration induced by the chemokine panel, in words [2]: None of these significantly inhibited migration

CADPKQKWVQ [Peptide 3[3-12]]
EC50 [3]: 7 µM
EC50 [4]: 9 µM
ED50 versus TGFβ1, inhibition of THP-1 migration [5]: n.s.
EC50 [6]: 9 µM
EC50 [1, 10]: 8 µM

CLDPKQKWIQC [unlabeled peptide]
EC50 [1, 10]: ~9 µM

EICADP [Peptide 3[1-6]]
EC50 ([2]; THP-1 migration, read-out: ED50 for inhibiting the CC chemokines): ~30 µM
EC50 [2, 9]: 24 µM
CC SPECIFICITY [2]: 0.7
EC50 [3]: 25 µM
EC50 [4]: 17 µM
ED50 versus TGFβ1, inhibition of THP-1 migration [5]: n.s.
EC50 [6]: 19 µM
EC50 [1, 10]: 33 µM

EICADPKQKWIQ [Ile11peptide 3]
selectivity of IL-8 over other chemokines [2]: about 3 fold
EC50 [2, 9]: 5 µM
CC SPECIFICITY [2]: 0.9
EC50 [3]: 4 µM
EC50 [4]: 2 µM
ED50 versus TGFβ1, inhibition of THP-1 migration [5]: n.s.
EC50 [6]: 7 µM
EC50 [1, 10]: 6 µM

EICADPSEEWVQ [Ser7Glu8Glu9pep3]
selectivity ratio for MIP1α versus all other chemokines [2]: about 3 fold
EC50 [2, 9]: 6 µM
EC50 [3]: 2 µM
EC50 [4]: 9 µM
ED50 versus TGFβ1, inhibition of THP-1 migration [5]: n.s.
EC50 [6]: 5 µM
EC50 [1, 10]: 7 µM

ELRVIESGPHCANTEI [Pep2[IL8]]
AVERAGE ED50, peptide 2 family: estimated ka for binding to THP-1 cells [7]: 1-10^e μM

GGR [reference compound]
effect on THP-1 migration induced by the chemokine panel, in words [2]: None of these significantly inhibited migration

KAK
Chemokine antagonist [2]: +

KEN
CC SPECIFICITY [2]: <0.1
EC50 ([2]; footnote f, KQK MCP-1, SEE MIP1α, KLK SDF1, KEN IL8, read-out: ED50 of a tripeptide against the one chemokine it is highly specific for): 0.1 to 10 µM
percentage inhibition of migration induced by IL-8 ([4]; tripeptide at 100 μM, mean ± range, dash = no statistically significant reduction in migration): 70 ± 4%
percentage inhibition of migration induced by MCP-1 ([1]; tripeptide at 100 μM, mean ± range of two experiments, dash = no statistically significant reduction in migration): 21 ± 2^ %

KNK
Chemokine antagonist [2]: +++

RGD [reference compound]
effect on THP-1 migration induced by the chemokine panel, in words [2]: None of these significantly inhibited migration

TTT [reference compound]
effect on THP-1 migration induced by the chemokine panel, in words [2]: None of these significantly inhibited migration

WGQ
EC50 [1, 10]: ~1.75 µM

WIQ
EC50 [2, 9]: 2 µM
CC SPECIFICITY [2]: 1.0

n′-CLDPKQKWIQC-c′ (Biotin-CLDPKQKWIQC; cysteine pairing not given here) [labeled peptide, N-terminal biotin conjugate]
EC50 [1, 10]: ~4 µM
